{"source": "patent US6667040B2", "about": "“Bovine footrot treatment and prevention” (University Technologies International, Inc., priority 1997, dated 2003)", "assay_type_in_all_cases": "cell-based", "key": {"[1]": {"tested_on": "Prevotella intermedia (5-2)", "assay": "Penicillin G disc diffusion susceptibility test", "details": "with regrowth"}, "[2]": {"tested_on": "Bacteroides fragilis (7-6)", "assay": "Penicillin G disc diffusion susceptibility test"}, "[3]": {"tested_on": "Prevotella intermedia (8-2)", "assay": "Penicillin G disc diffusion susceptibility test", "details": "with regrowth"}, "[4]": {"tested_on": "Prevotella intermedia (14-7)", "assay": "Penicillin G disc diffusion susceptibility test"}, "[5]": {"tested_on": "Isolates of Porphyromonas levii", "assay": "Penicillin G susceptibility of Porphyromonas levii isolates"}, "[6]": {"details": "disc with 10 units penicillin G"}}, "data": [{"smiles": "CC1(C)S[C@@H]2[C@H](NC(=O)Cc3ccccc3)C(=O)N2[C@H]1C(=O)O", "note": "[penicillin G]", "values": [{"measurement": "P2 zone of inhibition", "setting": "[1]; disc with 2 units penicillin G", "value": 22, "unit": "mm"}, {"measurement": "P10 zone of inhibition", "setting": "[1]; [6]", "value": "28 (with regrowth) mm"}, {"measurement": "susceptibility to penicillin", "setting": "[2]; disc diffusion", "value": "clearly resistant"}, {"measurement": "P2 zone of inhibition", "setting": "[2]; disc with 2 units penicillin G", "value": 0, "unit": "mm"}, {"measurement": "P10 zone of inhibition", "setting": "[2]; [6]", "value": 0, "unit": "mm"}, {"measurement": "P2 zone of inhibition", "setting": "[3]; disc with 2 units penicillin G", "value": 27, "unit": "mm"}, {"measurement": "P10 zone of inhibition", "setting": "[3]; [6]", "value": "35 (with regrowth) mm"}, {"measurement": "P2 zone of inhibition", "setting": "[4]; disc with 2 units penicillin G", "value": "34 (with mm"}, {"measurement": "regrowth within P2 zone of inhibition", "setting": "[4]; disc with 2 units penicillin G, regrowth around the disc", "value": 22, "unit": "mm regrowth)"}, {"measurement": "P10 zone of inhibition", "setting": "[4]; [6]", "value": 38, "unit": "mm"}, {"measurement": "regrowth within P10 zone of inhibition", "setting": "[4]; disc with 10 units penicillin G, regrowth around the disc", "value": 23, "unit": "mm"}, {"measurement": "susceptibility to penicillin G", "setting": "[5]", "value": "sensitive"}]}]}
